Laboratory results: PubChem BioAssay (NCI)
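Protocol summary: plate cells (96-well), add compound at 5 concentrations, incubate 48 h, interpolate endpoints linearly. TGI is the concentration that stops growth completely.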

Columns and labels:
Test in all cases: DTP human tumour cell line panel, 48 h
[1] = test system: HOP-62 NSCLC
[2] = test system: SF-539 CNS
[3] = test system: SW-620 colon
[4] = test system: MCF7 breast
[5] = test system: M14 melanoma
[6] = test system: U251 CNS
[7] = test system: 786-0 renal
[8] = test system: SNB-19 CNS
[9] = test system: CAKI-1 renal
[10] = test system: OVCAR-4 ovarian

Row | SMILES | TGI [1] | TGI [2] | TGI [3] | TGI [4] | TGI [5] | TGI [6] | TGI [7] | TGI [8] | TGI [9] | TGI [10]
1 | Cc1nn2c(=O)c([N+](=O)[O-])c(/C=C/c3ccccc3)nc2s1 | > 72 µM | 5.89 µM | > 51.4 µM | 8.86 µM | > 53.9 µM | 7.99 µM | > 100 µM | > 90.8 µM | > 100 µM | > 100 µM
2 | O=C(NC(C(F)(F)F)(C(F)(F)F)P(=O)(c1ccccc1)c1ccccc1)C(C(F)(F)F)C(F)(F)F | > 100 µM | 52.1 µM | 62.3 µM | 62.1 µM | 36.3 µM | > 100 µM | 47.8 µM | > 100 µM | 0.0564 µM | > 100 µM
3 | CC1=NC(=O)C(C)(c2ccccc2)N1CCc1ccccc1 (stereo not given) | > 100 µM | > 100 µM | > 100 µM | > 100 µM | > 100 µM | > 100 µM | > 100 µM | > 100 µM | > 100 µM | > 100 µM
4 | CCOC(=O)c1cc(Sc2ccc(N)c(C(=O)OCC)c2)ccc1N | 65.9 µM | > 100 µM | > 100 µM | > 100 µM | > 100 µM | > 100 µM | > 100 µM | > 100 µM | > 100 µM | > 100 µM
5 | CSC1=N[C@H](c2ccccc2)CS1 | > 100 µM | > 100 µM | > 100 µM | > 100 µM | > 100 µM | > 100 µM | > 100 µM | > 100 µM | > 100 µM | > 100 µM
6 | Fc1cc(C2=C[C@H](c3ccc(Cl)cc3)NC(=S)N2)c(Cl)cc1Cl | > 100 µM | > 100 µM | > 100 µM | > 100 µM | > 100 µM | > 100 µM | > 100 µM | > 100 µM | > 100 µM | > 100 µM
7 | NCCCCNCCCN1CC1 | 5.83 µM | 2.59 µM | > 100 µM | > 100 µM | > 100 µM | 28.9 µM | 5.75 µM | 22.5 µM | 0.382 µM | 0.733 µM
8 | COc1cc2c(cc1OC)-c1[nH]c3ccc(C#N)cc3c1CC(=O)N2 | > 100 µM | > 100 µM | > 100 µM | > 100 µM | > 100 µM | > 100 µM | > 100 µM | > 100 µM | > 100 µM | > 100 µM
9 | Nc1ccn(C2CC(O)C(COP(O)(=S)OC3CC(n4ccc(N)nc4=O)OC3CO)O2)c(=O)n1 (stereo not given) | > 100 µM | > 100 µM | > 100 µM | > 100 µM | > 100 µM | > 100 µM | > 100 µM | > 100 µM | > 100 µM | > 100 µM
10 | CC1=C(C(=O)Nc2cccc3c2C(=O)NC3=O)CC(C(=O)Nc2cccc3c2C(=O)NC3=O)=C(C)N1 | > 100 µM | > 100 µM | > 100 µM | > 100 µM | > 100 µM | > 100 µM | > 100 µM | > 100 µM | > 100 µM | > 100 µM
11 | Cc1c2cnccc2c(C)c2c1[nH]c1ccc(O)cc12 | 2.75 µM | 2.41 µM | 7.03 µM | 5.34 µM | > 10 µM | > 10 µM | 1.42 µM | > 10 µM | > 10 µM | 8 µM
12 | O=C(O)C1C(C(=O)O)C2C(=O)C=CC1N2Cc1ccccc1 (stereo not given) | 10.5 µM | 7.56 µM | 11.6 µM | 25.7 µM | 5.99 µM | 14.2 µM | 11.7 µM | 18.2 µM | 14.5 µM | 16.3 µM
13 | c1csc(-c2cscc2-c2ccsc2)c1 | > 100 µM | > 93.5 µM | > 100 µM | > 83.5 µM | > 100 µM | > 100 µM | > 100 µM | > 100 µM | > 100 µM | > 100 µM
14 | O=C(O)c1c[nH]c2c(Sc3ccccc3)nccc2c1=O | > 100 µM | > 100 µM | > 100 µM | > 100 µM | > 100 µM | > 100 µM | > 100 µM | > 100 µM | > 100 µM | > 100 µM
15 | COc1ccc(/C=C(\Cl)c2ccc(OC)c(OC)c2)cc1OC | > 100 µM | > 100 µM | > 100 µM | > 100 µM | > 100 µM | > 100 µM | > 100 µM | > 100 µM | > 100 µM | > 100 µM
16 | O=C1NC(N2CCOCC2)=N/C1=C\c1cccs1 | > 100 µM | > 100 µM | > 100 µM | > 100 µM | > 100 µM | > 100 µM | > 100 µM | > 100 µM | > 100 µM | > 100 µM
17 | C[C@H]1[C@H](C)N(Cc2ccccc2)P(=O)(C(O)/C=C/c2ccccc2)N1Cc1ccccc1 (stereo not given in full) | > 25 µM | 10.2 µM | > 25 µM | > 25 µM | 9.05 µM | 10 µM | 10.9 µM | > 25 µM | > 25 µM | 15 µM
18 | CCOC(=O)c1nc2ccc(C(F)(F)F)cc2nc1NCc1ccc(Cl)c(Cl)c1 | 52.1 µM | > 100 µM | > 100 µM | > 100 µM | > 100 µM | > 100 µM | 46.7 µM | 83.2 µM | 57.5 µM | 48.6 µM
